≈ marks a conversion by molar mass, not a printed value. Residues, ends and D or L forms follow the SMILES beside them.

This experiment has as its system Staphylococcus aureus. The experiment is described as follows: Antimicrobial activity against Staphylococcus aureus. Type of experiment: functional.

A word on the MIC: it is the smallest concentration in the dilution series that meets the test's criterion for growth inhibition. Read a low MIC as inhibition by little substance. `CC(C)C[C@@H]1NC(=O)[C@H](Cc2c[nH]c3ccccc23)NC(=O)[C@@H]2CCCN2C(=O)[C@H]([C@@H](C)O)NC(=O)[C@H](CO)NC(=O)[C@H](Cc2c[nH]c3ccccc23)NC(=O)[C@H](CC(N)=O)NC(=O)[C@H](CC(N)=O)NC(=O)[C@H](CC(=O)O)NC(=O)CNC(=O)[C@H](CC(N)=O)NC1=O` [KAWAGUCHIPEPTIN B] (HELM PEPTIDE1{D.N.N.W.S.T.P.W.L.N.G}$PEPTIDE1,PEPTIDE1,1:R1-11:R2$$$V2.0) had a minimal inhibitory concentration (MIC) of 1 µg/mL (≈ 0.778 µM).
`CC(C)=CC[C@@]12C[C@H]3C(=O)N[C@@H](CO)C(=O)N[C@@H]([C@@H](C)O)C(=O)N4CCC[C@H]4C(=O)N4[C@@H](C[C@@]5(CC=C(C)C)c6ccccc6N[C@@H]45)C(=O)N[C@H](CC(C)C)C(=O)N[C@@H](CC(N)=O)C(=O)NCC(=O)N[C@@H](CC(=O)O)C(=O)N[C@@H](CC(N)=O)C(=O)N[C@@H](CC(N)=O)C(=O)N3[C@H]1Nc1ccccc12` [KAWAGUCHIPEPTIN A] came in with an MIC of 1 µg/mL (≈ 0.703 µM).

For the origin of these results see ChEMBL document CHEMBL1146442, “Kawaguchipeptin B, an antibacterial cyclic undecapeptide from the cyanobacterium Microcystis aeruginosa” (1997).
